Experiments:
Carbonic anhydrase 1 = Carbonic anhydrase 1 (Homo sapiens, UniProt P00915)
Description: Inhibition of human carbonic anhydrase 1 incubated for 10 mins prior to testing measured for 5 to 10 secs by phenol red-based stopped-flow CO2 hydration assay

Carbonic anhydrase 9 = Carbonic anhydrase 9 (Homo sapiens, UniProt Q16790)
Description: Inhibition of human carbonic anhydrase 9 incubated for 10 mins prior to testing measured for 5 to 10 secs by phenol red-based stopped-flow CO2 hydration assay

HT-29 = experiment: cells; type: functional, cell-based; details: Homo sapiens, HT-29, 24 h
Description: Cytotoxicity in human HT-29 cells assessed as reduction in cell viability incubated for 24 hrs under hypoxic condition by MTT assay

HEK-293T = experiment: cells; type: ADME, cell-based; details: Homo sapiens, 24 h
Description: Cytotoxicity in HEK293T cells assessed as reduction in cell viability incubated for 24 hrs under hypoxic condition by MTT assay

Carbonic anhydrase 2 = Carbonic anhydrase 2 (Homo sapiens, UniProt P00918)
Description: Inhibition of human carbonic anhydrase 2 incubated for 10 mins prior to testing measured for 5 to 10 secs by phenol red-based stopped-flow CO2 hydration assay

Carbonic anhydrase 12 = Carbonic anhydrase 12 (Homo sapiens, UniProt O43570)
Sequence of Carbonic anhydrase 12 (O43570 whole entry): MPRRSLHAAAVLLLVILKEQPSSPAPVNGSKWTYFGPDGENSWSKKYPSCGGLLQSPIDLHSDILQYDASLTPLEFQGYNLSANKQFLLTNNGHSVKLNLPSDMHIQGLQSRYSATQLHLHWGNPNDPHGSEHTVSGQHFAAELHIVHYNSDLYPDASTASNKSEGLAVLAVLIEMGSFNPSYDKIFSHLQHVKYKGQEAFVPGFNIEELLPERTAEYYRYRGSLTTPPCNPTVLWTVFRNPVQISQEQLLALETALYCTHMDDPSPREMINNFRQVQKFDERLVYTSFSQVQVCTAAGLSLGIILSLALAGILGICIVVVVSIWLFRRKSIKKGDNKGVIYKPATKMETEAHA
Description: Inhibition of human carbonic anhydrase 12 incubated for 10 mins prior to testing measured for 5 to 10 secs by phenol red-based stopped-flow CO2 hydration assay

Sequence of Carbonic anhydrase 1 (P00915 whole entry): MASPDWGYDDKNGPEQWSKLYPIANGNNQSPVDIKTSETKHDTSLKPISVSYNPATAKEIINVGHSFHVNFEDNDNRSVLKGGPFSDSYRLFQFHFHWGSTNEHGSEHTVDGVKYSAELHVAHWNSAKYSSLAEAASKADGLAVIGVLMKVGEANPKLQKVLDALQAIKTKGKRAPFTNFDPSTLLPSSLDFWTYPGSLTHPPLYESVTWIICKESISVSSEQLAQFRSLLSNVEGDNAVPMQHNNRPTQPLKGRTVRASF

Row | Compound | Ki (Carbonic anhydrase 1) | Ki (Carbonic anhydrase 9) | IC50 (HT-29) | IC50 (HEK-293T) | Ki (Carbonic anhydrase 2) | Ki (Carbonic anhydrase 12)
1 | C#CCOc1ccc(/C=N/Cc2ccc(S(N)(=O)=O)cc2)cc1 | > 10 µM | 0.231 µM | 14.1 µM | 398 µM | – | –
2 | O=Cc1c(OCc2cn(CCCOc3ccc4ccc(=O)oc4c3)nn2)ccc2ccccc12 | > 10 µM | 0.189 µM | 149 µM | – | > 10 µM | > 10 µM
3 | C#CCOc1ccc2ccccc2c1/C=N/Cc1ccc(S(N)(=O)=O)cc1 | > 10 µM | 1.09 µM | 46.1 µM | – | – | –
4 | C#CCOc1ccc(Br)cc1/C=N/Cc1ccc(S(N)(=O)=O)cc1 | > 10 µM | 0.19 µM | 45.7 µM | – | – | –
5 | C#CCOc1ccccc1/C=N/Cc1ccc(S(N)(=O)=O)cc1 | > 10 µM | 1.07 µM | 31 µM | – | – | –
6 | NS(=O)(=O)c1ccc(C/N=C/c2cc(Br)ccc2OCc2cn(CCCOc3ccc4ccc(=O)oc4c3)nn2)cc1 | > 10 µM | 0.16 µM | 17.7 µM | 8.25 µM | – | –
7 | NS(=O)(=O)c1ccc(C/N=C/c2c(OCc3cn(CCCOc4ccc5ccc(=O)oc5c4)nn3)ccc3ccccc23)cc1 | > 10 µM | 0.0455 µM | 17 µM | 119 µM | – | –
8 | C#CCOc1ccc(/C=N/Cc2ccc(S(N)(=O)=O)cc2)cc1OC | > 10 µM | 0.0812 µM | 136 µM | 537 µM | – | –
9 | CCN(CC)c1ccc(/C=N/Cc2ccc(S(N)(=O)=O)cc2)c(OCc2cn(CCCOc3ccc4ccc(=O)oc4c3)nn2)c1 | > 10 µM | 2.18 µM | 23.3 µM | 29.5 µM | – | –
10 | COc1cc(C=O)ccc1OCc1cn(CCCOc2ccc3ccc(=O)oc3c2)nn1 | > 10 µM | 0.133 µM | 65.4 µM | – | > 10 µM | > 10 µM
11 | NS(=O)(=O)c1ccc(C/N=C/c2ccccc2OCc2cn(CCCOc3ccc4ccc(=O)oc4c3)nn2)cc1 | > 10 µM | 0.187 µM | 14.3 µM | 13.9 µM | – | –
12 | O=Cc1cc(Br)ccc1OCc1cn(CCCOc2ccc3ccc(=O)oc3c2)nn1 | > 10 µM | 0.196 µM | 7.47 µM | 6.08 µM | > 10 µM | > 10 µM
13 | C#CCOc1cc(N(CC)CC)ccc1/C=N/Cc1ccc(S(N)(=O)=O)cc1 | > 10 µM | 0.198 µM | 62.8 µM | – | – | –
14 | NS(=O)(=O)c1ccc(C/N=C/c2cccc(OCc3cn(CCCOc4ccc5ccc(=O)oc5c4)nn3)c2)cc1 | > 10 µM | 0.955 µM | 107 µM | – | – | –
15 | NS(=O)(=O)c1ccc(C/N=C/c2ccc(OCc3cn(CCCOc4ccc5ccc(=O)oc5c4)nn3)cc2)cc1 | > 10 µM | 0.169 µM | 125 µM | – | – | –
16 | CCN(CC)c1ccc(C=O)c(OCc2cn(CCCOc3ccc4ccc(=O)oc4c3)nn2)c1 | > 10 µM | 0.158 µM | 9.03 µM | 19.2 µM | > 10 µM | > 10 µM
17 | C#CCOc1ccc([N+](=O)[O-])cc1/C=N/Cc1ccc(S(N)(=O)=O)cc1 | > 10 µM | 0.212 µM | 34.8 µM | – | – | –
18 | O=Cc1ccccc1OCc1cn(CCCOc2ccc3ccc(=O)oc3c2)nn1 | > 10 µM | 0.128 µM | 18.9 µM | 13.7 µM | – | –
19 | COc1cccc(/C=N/Cc2ccc(S(N)(=O)=O)cc2)c1OCc1cn(CCCOc2ccc3ccc(=O)oc3c2)nn1 | > 10 µM | 1.48 µM | 52.5 µM | – | – | –
20 | COc1cccc(C=O)c1OCc1cn(CCCOc2ccc3ccc(=O)oc3c2)nn1 | > 10 µM | 1.17 µM | 13.3 µM | 30.4 µM | > 10 µM | > 10 µM
21 | C#CCOc1cccc(/C=N/Cc2ccc(S(N)(=O)=O)cc2)c1 | > 10 µM | 2.03 µM | 104 µM | – | – | –
22 | COc1cccc2c1C(=O)c1c(O)c3c(c(O)c1C2=O)C[C@@](O)(C(=O)CO)C[C@@H]3O[C@H]1C[C@H](N)[C@H](O)[C@H](C)O1 [DOXORUBICIN] | – | – | 5.38 µM | 1.05 µM | – | –
23 | COc1cc(/C=N/Cc2ccc(S(N)(=O)=O)cc2)ccc1OCc1cn(CCCOc2ccc3ccc(=O)oc3c2)nn1 | > 10 µM | 0.76 µM | 31.6 µM | – | – | –
24 | NS(=O)(=O)c1ccc(C/N=C/c2cc([N+](=O)[O-])ccc2OCc2cn(CCCOc3ccc4ccc(=O)oc4c3)nn2)cc1 | > 10 µM | 0.857 µM | 117 µM | – | – | –
25 | C#CCOc1c(/C=N/Cc2ccc(S(N)(=O)=O)cc2)cccc1OC | > 10 µM | 1.19 µM | 81.3 µM | 135 µM | – | –
26 | O=Cc1cc([N+](=O)[O-])ccc1OCc1cn(CCCOc2ccc3ccc(=O)oc3c2)nn1 | > 10 µM | 0.137 µM | 53.6 µM | – | > 10 µM | > 10 µM
27 | O=Cc1ccc(OCc2cn(CCCOc3ccc4ccc(=O)oc4c3)nn2)cc1 | > 10 µM | 0.171 µM | 100 µM | – | > 10 µM | > 10 µM
28 | O=Cc1cccc(OCc2cn(CCCOc3ccc4ccc(=O)oc4c3)nn2)c1 | > 10 µM | 0.192 µM | 129 µM | – | > 10 µM | –

Source: ChEMBL document CHEMBL4311974, “Synthesis of coumarin-sulfonamide derivatives and determination of their cytotoxicity, carbonic anhydrase inhibitory and molecular docking studies” (Eur J Med Chem, 2019)
